Patent US20160303137A1, “DUAL PI3K AND WNT PATHWAY INHIBITION AS A TREATMENT FOR CANCER” (Indiana University Research and Technology Corporation, priority 2015, published 2016)
Where two headings read alike, the source gives them in different places.

Key:
[1] = test system: Wnt pathway genes incl. Porcupine (PORCN); experiment: RNA-seq of MDA-MB-231 before and after Buparlisib treatment; format: cell-based, human; conditions: MDA-MB-231, RNA-seq after vs before treatment
Description: RNA-sequencing for the Buparlisib treated MDA-MB-231 cell line experiment was performed as follows. To enrich for the non-ribosomal RNA transcriptome, RNA samples were first depleted of ribosomal RNA using the Low Input Ribominus Kit (Life Technologies). ERCC spike-in controls (Pool 1) were introduced for all samples (Life Technologies). RNA libraries were constructed using the Ion Total RNA-Seq Kit for AB Library Builder System (Life Technologies) per manufacturer's instructions. Libraries were barcoded using the IonXpress RNA-Seq Barcode 1-16 Kit (Life Technologies), and libraries were quantified using the Agilent TapeStation 2200 along with the DNA D1K Kit. Libraries were diluted to a concentration of 11 picomolar prior to templating and emulsion PCR using the Ion Template OT2 200 v2 kit along with Ion OneTouch 2 instrument (Life Technologies). Templates were quantified using the IonSphere Quality Control Kit (Life Technologies). Samples were sequenced on an Ion Proton Next-Generation Sequencer using the Ion Proton PI chip and the Ion PI Sequencing 200 v2 kit (Life Technologies). Samples were sequenced using 2 RNA-seq libraries/samples per chip to an average of 30-40 million reads per sample. Reads were mapped to the human genome (hg19) using the STAR algorithm (Dobin et al. Bioinformatics 29, 15-21 (2013)). Aligned BAM files were then imported into Partek Genomics Suite. […]

[2] = test system: phosphorylated-AKT (p-AKT Ser 473); experiment: Western blot of phospho-AKT in TNBC cell lines; format: cell-based; conditions: MDA-MB-231, HCC70, HCC1143; 1 μM or 10 μM; 72 hours
Description: (§1) For Western Blot analysis, target modulation was assessed using qPCR for Axin2 (a marker of WNT974), and western blot for Porcupine and Phospho-Akt […] (a marker of Buparlisib activity). qPCR was performed using Taqman assays (Life Technologies). For western blotting, protein was isolated using RIPA buffer and quantified with BCA assay (Thermo Fisher). Protein was run on Bis-Tris gels (Life Technologies) and transferred to PVDF. Primary pAKT-[…] antibody (Cell Signaling Technology, Beverly, Mass.), β-actin (Cell Signaling Technology), and PORCN (Abcam, Cambridge, England) were incubated overnight with subsequent 1 hour incubation with HRP-conjugate secondary antibody. Staining was performed using a chemiluminescent substrate (ThermoFisher). Imaging was performed using an LAS-4000 Luminescent Image Analyzer (Fujifilm, Tokyo, Japan). Three TNBC cell lines: MDA-MB-231, HCC70, and HCC1143 were treated with either 0, 1 μM or 10 μM Buparlisib. After 72 hours, protein was isolated and PORCN and pAKT expression was observed.

Porcupine (PORCN) = experiment: Western blot of Porcupine in TNBC cell lines; format: cell-based; conditions: MDA-MB-231, HCC70, HCC1143; 1 μM or 10 μM; 72 hours
Description: as §1

[3] = In vivo single-dose PK, plasma HPLC-MS/MS; set-up: species or system NSG mice; conditions: for AUC(0-inf) / Cmax / Tmax / half-life / Vd/F: NOD-scid IL2Rgamma-null (NSG), mouse, po; for Vd/F: read-out: Vdss/F; for Cl/F: single dose po
Description: For pharmacokinetic studies, NOD-scid IL2Rgamma-null (NSG) mice were obtained from the In Vivo Therapeutics (IVT) Core at the Indiana University School of Medicine and given a single dose of Buparlisib, WNT974, or the combination at pre-established concentrations of 30 mg/kg and 3 mg/kg respectively. This experiment employed 45 NSG mice (n=15 for each group). Plasma was drawn from 3 mice from each group at 0.5, 1, 2, 6, and 24 hours post dosage. Buparlisib and WNT974 were quantified in the plasma using high-performance liquid chromatography-mass spectrometry (HPLC-MS/MS). Pharmacokinetic (PK) parameters for Buparlisib and WNT974 including area under the curve (AUC), area under the moment curve (AUMC), and half-life (t½) were estimated using non-compartmental methods with Excel and WinNonlin v 2.0 (Certara, Princeton, N.J.). The maximum plasma concentration (Cmax) and time of Cmax (tmax) was calculated from the data. The systemic clearance (Cl/F, where F=bioavailability) of each drug was calculated from the dose and AUC0-∝The apparent volume of distribution (Vdss/F) was estimated from the Cl/F and mean residence time. The single-agent pharmacokinetic parameters were compared to the drug combination parameters to determine whether a drug-drug interaction exists.

TMD-231 TNBC cells = experiment: Pharmacodynamic study, TMD-231 xenograft tumor volume; format: in vivo, NSG mice; conditions: single agent, 7 days once-a-day; Buparlisib 30 mg/kg, WNT974 3 mg/kg
Description: For the pharmacodynamic studies, NSG mice were implanted with TMD-231 TNBC cells into the mammary fat pad of 24 NSG mice (6 mice per group: Vehicle, Buparlisib, WNT974, Buparlisib+WNT974). The TMD-231 cell line is a variant of the MDA-MB-231 cell line that metastasizes to the lung. Tumors were allowed to grow for 29 days to an average size of approximately 350 mm^3 prior to dosing. To validate compound-mediated modulation of the PI3K/mTOR and Wnt signaling pathways, mice were dosed once-a-day with vehicle, Buparlisib (30 mg/kg), WNT974 (3 mg/kg), or the combination for 7 days, with intermittent tumor measurements.

[4] = Quantification of drug in resected tumors (PD study); format: in vivo, NSG mice; conditions: tumors resected 1 hour and 7 hours after last dose, day 7; HPLC-MS/MS
Phospho-AKT = experiment: pAKT western blot on TMD-231 tumors (PD study); format: in vivo, NSG mice; conditions: 7 days once-a-day; Buparlisib 30 mg/kg, WNT974 3 mg/kg
Description: as §1, with “Japan).” for “Japan). Three TNBC cell lines: MDA-MB-231, HCC70, and HCC1143 were treated with either 0, 1 μM or 10 μM Buparlisib. After 72 hours, protein was isolated and PORCN and pAKT expression was observed.”

AXIN2 RNA = experiment: Axin2 RNA qPCR on TMD-231 tumors (PD study); format: in vivo, NSG mice; conditions: 7 days once-a-day; Buparlisib 30 mg/kg, WNT974 3 mg/kg
Description: as §1, with “Japan).” for “Japan). Three TNBC cell lines: MDA-MB-231, HCC70, and HCC1143 were treated with either 0, 1 μM or 10 μM Buparlisib. After 72 hours, protein was isolated and PORCN and pAKT expression was observed.”

TMD-231 lung metastases = experiment: Lung metastases quantification (Ki67), TMD-231 model; format: in vivo, NSG mice; conditions: Ki67 positive pixels in lung sections; Buparlisib 30 mg/kg, WNT974 3 mg/kg
Description: For the pharmacodynamic studies, NSG mice were implanted with TMD-231 TNBC cells into the mammary fat pad of 24 NSG mice (6 mice per group: Vehicle, Buparlisib, WNT974, Buparlisib+WNT974). The TMD-231 cell line is a variant of the MDA-MB-231 cell line that metastasizes to the lung. Tumors were allowed to grow for 29 days to an average size of approximately 350 mm^3 prior to dosing. To validate compound-mediated modulation of the PI3K/mTOR and Wnt signaling pathways, mice were dosed once-a-day with vehicle, Buparlisib (30 mg/kg), WNT974 (3 mg/kg), or the combination for 7 days, with intermittent tumor measurements. […] To quantify lung metastases, lungs were extracted, fixed in 10% formalin, and processed in paraffin. Five-micrometer sections were H&E stained, deparaffinized, blocked, and stained using primary anti-human Ki67 antibody (DAKO, Carpinteria, Calif.). The Aperio whole slide digital imaging system was used for imaging (Leica, Wetzlar, Germany). Using the Aperio ScanScope CS, 20× images were taken at scan times ranging from 1.5 to 2.25 minutes. The total nuclear labeling index (Ki67) was generated using the Aperio ImageScope standard positive pixel algorithm. The Image Analysis software was used to calculate the percent of positive pixels (brown staining) in one large cross section from each lung.

[5] = test system: TNBC patient derived xenograft (PDX) (ID: BR0901); experiment: TNBC PDX study, survival; format: in vivo, NSG mice; conditions: n=10 per group, once-a-day max 28 days; Buparlisib 30 mg/kg, WNT974 3 mg/kg
Description: NSG mice were trochar implanted in the right hind flank with a passage 1-4, 5 mm^3 TNBC patient derived xenograft (PDX) (ID: BR0901) at The Jackson Laboratory (The Jackson Laboratory, Bar Harbor, Maine). […] 40 TNBC PDX implanted mice were used (10 mice per group: Vehicle, Buparlisib (30 mg/kg), WNT974 (3 mg/kg), and Buparlisib+WNT974). Tumors were grown to an average of 70-150 mm^3 and mice averaged 22.5 grams body weight. Mice were dosed once-a-day for a maximum of 28 days. Tumor measurements were made two times a week. Mice whose tumors reached a size of 1500 mm^3 were euthanized per IACUC protocol.

[6] = known; cited from earlier work
Porcupine = molecular target: T1, Porcupine (Homo sapiens, UniProt Q9H237); conditions: recently published data; cited from earlier work
T1 sequence (Q9H237 1-461): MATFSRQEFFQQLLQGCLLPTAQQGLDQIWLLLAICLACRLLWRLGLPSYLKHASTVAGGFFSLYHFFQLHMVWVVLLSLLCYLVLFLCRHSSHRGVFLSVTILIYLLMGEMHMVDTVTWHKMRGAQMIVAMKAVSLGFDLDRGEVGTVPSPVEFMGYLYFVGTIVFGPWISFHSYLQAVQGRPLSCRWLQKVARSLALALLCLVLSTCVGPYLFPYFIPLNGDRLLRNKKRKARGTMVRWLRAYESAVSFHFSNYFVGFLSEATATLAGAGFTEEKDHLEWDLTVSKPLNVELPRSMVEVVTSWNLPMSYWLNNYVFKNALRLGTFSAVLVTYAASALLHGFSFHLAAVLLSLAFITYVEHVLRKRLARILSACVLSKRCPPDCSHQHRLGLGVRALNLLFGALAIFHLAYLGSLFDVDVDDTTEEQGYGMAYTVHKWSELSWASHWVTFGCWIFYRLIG

tumor growth = conditions: recently published data; cited from earlier work
[7] = drug given alone, Buparlisib 30 mg/Kg, WNT974 3 mg/Kg
[8] = measured drug given in combination with the other, Buparlisib 30 mg/Kg + WNT974 3 mg/Kg

SMILES	AUC(0-inf) [3, 7] [ng·h/mL]	Cmax [3, 7] [ng/mL]	Tmax [3, 7] [h]	half-life [3, 7] [h]	Vd/F [3, 7] [L]	AUC(0-inf) [3, 8] [ng·h/mL]	Cmax [3, 8] [ng/mL]	Tmax [3, 8] [h]	half-life [3, 8] [h]	Vd/F [3, 8] [L]	Cl/F [3, 7] [L/h]	Cl/F [3, 8] [L/h]	tumor volume change (in words) (TMD-231 TNBC cells)	drug concentrations in tumor tissue [4]	Inhibition of Phospho-AKT in tumors (Phospho-AKT)	Axin2 RNA expression in tumors (AXIN2 RNA)	lung metastases compared with the control group (TMD-231 lung metastases)	mice survived to the end of the study [5] [%]	toxicity / most common side effect in humans [6]	also measured
Nc1cc(C(F)(F)F)c(-c2cc(N3CCOCC3)nc(N3CCOCC3)n2)cn1 [Buparlisib, 5-(2,6-di-4-morpholinyl-4-pyrimidinyl)-4-(trifluoromethyl)-2-pyridinamine]	16500	2300	1	3	0.15	15500	2850	2	2.8	0.16	0.034	0.035	grew slightly	reaching the tumor	observed	no significant change	small but non-significant decreases	40	depression, anxiety, pneumonitis, and liver toxicity	expression of Wnt pathway genes [1]: significant increase; Porcupine (PORCN) gene over-expression after treatment ([1]; preliminary data): approximately 8 fold; phospho-AKT [2]: potent inhibition; Porcupine protein expression (Porcupine (PORCN)): increase
Cc1cc(-c2ncc(CC(=O)Nc3ccc(-c4cnccn4)cn3)cc2C)ccn1 [WNT974, 2-[5-methyl-6-(2-methylpyridin-4-yl)pyridin-3-yl]-N-(5-pyrazin-2-ylpyridin-2-yl)acetamide]	636	165	1	2.1	0.24	621	143	1	3	0.4	0.081	0.087	grew slightly	reaching the tumor	not	decrease	small but non-significant decreases	0	dysgeusia	inhibition of its target (Porcupine): potent inhibition; inhibition of tumor growth in vivo (tumor growth): significant inhibition
